Source: US20230082968A1, “EXOGENOUS NITRIC OXIDE FOR IMPROVED SUSCEPTIBILITY AND LOWERED ANTIBIOTIC RESISTANCE IN RESISTANT RESPIRATORY BACTERIA” (The University of North Carolina at Chapel Hill, priority 2020, published 2023)
In brackets after ≈: the same amount, converted by molar mass. Entries after “also recorded” stand apart in the source; their conditions may differ.

Legend:
[1] = tested on: P. aeruginosa strain K (PAK); assay: Checkerboard assay of antibiotic combinations with COS/NO; type: cell-based, Pseudomonas aeruginosa; details: antibiotic in combination with COS/NO, 24 h
Method: Frozen stocks of bacteria were reconstituted in TSB (3 mL) and cultured overnight. The overnight cultures of bacteria (3 mL) were inoculated into fresh TSB (30 mL) and grown to 10^8 CFU/mL. […] Inhibition was assessed with the resazurin assay and the minimum inhibitory concentration (MIC) was defined as the lowest concentration of antibacterial agent required to prevent the reduction of resazurin (i.e., color change from blue to pink).
Mol. Pharm. 7, 2289-2296 (2010)]. Briefly, bacteria at a final concentration of 10^6 CFU/mL were incubated with an array of antimicrobial combinations in TSB for 24 h at 37° C. The highest concentration for each antimicrobial tested was 2 × MIC. […] The fractional […] concentration index (ΣFIC) was calculated using Equation 1, reported by Elion et al. [Elion, G. B., Singer, S. & Hitchings, G. H. Antagonists of Nucleic Acid Derivatives: VIII. Synergism in combinations of biochemically related antimetabolites. […] Checkerboard assays were conducted in at least duplicate for each bacterial strain and for each drug combination.
Characterization of the combinations was performed using the following criteria based on ΣFIC values: < 0.25 is highly synergistic; ≤ 0.5 is synergistic; ≤ 1 is additive; ≤ 4 is indifferent; > 4 is antagonistic.

[2] = tested on: PAK; assay: Nitric oxide pretreatment with planktonic bacteria; type: cell-based, Pseudomonas aeruginosa; details: NO-pretreatment 25% MIC 4 h
Method: After exposure, wells were serially diluted in sterile MilliQ water and spiral plated on TSA. Viability was assessed by colony counting.

[3] = tested on: PAK, ATCC MRSA, ATCC BCC, and AR 542; assay: NPN uptake assay (outer membrane permeability); type: cell-based; details: exposure to COS/NO, FIG. 1
Method: The outer membrane permeability of PAK, ATCC MRSA, ATCC BCC, and AR 542 was assessed with an NPN assay modified from Helander and coworkers [Helander, I. M. & Mattila-Sandholm, T. Fluorometric assessment of Gram-negative bacterial permeabilization. J. Appl. Microbiol. 88, 213-219 (2000)]. Briefly, a stock 4560 µM NPN in acetone solution was prepared fresh each day and diluted to 456 µM in PBS pH 7.4. Bacteria were cultured to a concentration of 10^8 CFU/mL in TSB, collected via centrifugation (5,000 × g for 5 min), and resuspended in PBS. Bacteria were added to COS/NO or DMSO in 1-dram vials and incubated at 37° C. with shaking. After 10 min of incubation, a portion of the exposure solution (196 µL) was removed and added to a black well plate, and 4 µL NPN (456 µM in PBS) was added. Fluorescence was immediately measured at excitation and emission wavelengths of 350 nm and 460 nm, respectively. The background NPN fluorescence in buffer was subtracted.

[4] = tested on: ATCC MRSA; assay: Serial passaging resistance assay; type: cell-based, Methicillin-resistant S. aureus
Method: (§1) Bacteria at a final concentration of 10^6 CFU/mL in TSB were incubated with serial dilutions of COS/NO and/or tobramycin for 24 h. Growth was assessed by measuring absorbance at 600 nm. The wells that had the highest concentration of test agent and an OD600 corresponding to more than 10^8 CFU/mL were diluted to 10^6 cfu/mL in TSB and incubated with fresh solutions of COS/NO or tobramycin for 24 h. A single passage was defined as one exposure, incubation, and subsequent dilution. Bacteria were passaged for up to 70 days.

[5] = tested on: P. aeruginosa biofilms; assay: Biofilm pretreatment with nitric oxide, all tested biofilms; type: cell-based; details: P. aeruginosa biofilms, COS/NO at 25% MBEC
Method: Bacteria were cultured to a concentration of 10^8 CFU/mL in TSB and diluted to 10^6 CFU/mL in 200 µL TSB in a 96 well plate. Plates were incubated with shaking for 3 days until a non-surface attached viscous aggregate formed that was easily separated from growth medium. Biofilms (100 µL) were removed, gently injected into PBS (200 µL) to remove loosely adhered planktonic cells, and added to a sterile 96 well plate. To the wells, PBS or test agent dissolved in PBS (100 µL) was added and incubated with shaking for 24 h. The biofilm (100 µL) was removed from the well plate, added to 900 µL sterile MilliQ water, and disrupted with pipetting and vortexing. Disrupted biofilms were serially diluted and spiral plated on TSA. Viability was assessed with colony counting. The minimum biofilm eradication concentration (MBEC) was defined as the lowest concentration of test agent required to reduce viability by 5-log (i.e., 10^8 to 10^3 CFU/mL).
The biofilm was then removed from its 96 well plate, added to a new 96 well plate containing tobramycin dissolved in PBS (100 µL), and incubated for 20 h. The biofilm was disrupted in 900 µL sterile MilliQ water with pipetting and vortexing, serially diluted, and spiral plated on TSA. Viability was assessed with colony counting.

[6] = tested on: PAK; assay: Serial passaging resistance assay; type: cell-based, Pseudomonas aeruginosa
Method: as §1

| Molecule | Classification (ΣFIC) [1] | ΣFIC (median fractional inhibitory concentration index) [1] | Classification ([2]; antibiotic 2 µg/mL) | Log Difference in bacteria viability with vs without NO-pretreatment ([2]; antibiotic 2 µg/mL) | also measured |
| --- | --- | --- | --- | --- | --- |
| C[C@H]1[C@H](NC(=O)/C(=N\OC(C)(C)C(=O)O)c2csc(N)n2)C(=O)N1S(=O)(=O)O [Aztreonam] | Additive | 0.75 | Synergistic | 5.11 log | – |
| CC(C)(O/N=C(\C(=O)N[C@@H]1C(=O)N2C(C(=O)[O-])=C(C[n+]3ccccc3)CS[C@H]12)c1csc(N)n1)C(=O)O [Ceftazidime] | Additive | 1 | – | – | – |
| C[C@@H](O)[C@H]1C(=O)N2C(C(=O)O)=C(S[C@@H]3CN[C@H](C(=O)N(C)C)C3)[C@H](C)[C@H]12 [Meropenem] | Synergistic | 0.5 | Synergistic | 3.22 log | – |
| [N]=O [NO, nitric oxide] | – | – | – | – | uptake of the hydrophobic fluorophore NPN and crystal violet dye (cell permeability) [3]: increased uptake; MICn ([4]; ATCC MRSA, after n = 30 passages): 384 µg/mL; MIC ([4]; Staphylococcus aureus, MRSA, read-out: MIC0): 384 µg/mL (≈ 12.8 mM); biofilm viability after NO-pretreatment alone [5]: does not significantly affect; also recorded: does not significantly reduce; MICn ([6]; PAK, after n = 70 passages): 96 µg/mL; MIC ([6]; Pseudomonas aeruginosa, read-out: MIC0): 96 µg/mL (≈ 3.2 mM) |
| Colistin | Synergistic | 0.5 | – | – | Log Difference in bacteria viability with vs without NO-pretreatment ([2]; antibiotic […]): 5.13 log |
